System: K12877-001-R-J1-PDC complex spheroid viability
Assay: Anticancer human tumor K12877-001-R-J1-PDC patient-derived lung adenocarcinoma cell line growth inhibition [RAS]
Details: for IC50: curve of first compound; for viability, T/C: stronger effect = lower value
Outline: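 Agents were tested in combination matrices in half-log decrements from a top concentration at or near clinical Cmax (10 microM if undetermined). Targets were multi-cell spheroids of tumour lines plus HUVEC and MSC stromal cells.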
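Note: spheroids exposed to agents for one week before readout.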
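Throughout, for viability, T/C: tumour cells co-cultured with HUVEC and mesenchymal stem cells in spheroids.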

In the case of `CCc1c2c(nc3ccc(O)cc13)-c1cc3c(c(=O)n1C2)COC(=O)[C@]3(O)CC` + CCn1c(-c2cccnc2C(C)OC)c2c3cc(ccc31)N1CCOC(CC(NC(=O)C(C(C)C)N(C)C(=O)C3(F)CCN(C(=O)C#CC(C)(C)N(C)C)CC3)C(=O)N3CCCC(N3)C(=O)OCC(C)(C)C2)C1, the IC50 (second compound 0.000949 µM) is reported as 4.24 nM, the IC50 (second compound 0.003 µM) is reported as 3.18 nM and the IC50 (second compound 0.00949 µM) is reported as 2.99 nM. The IC50 (second compound 0.03 µM) was 2.98 nM, the IC50 (second compound 0.0949 µM) was 2.7 nM and the IC50 (second compound 0.3 µM) was 1.63 nM. The viability, T/C (second compound 0.000949 µM, first compound 0.000949 µM) was 89.5%, the viability, T/C (second compound 0.000949 µM, first compound 0.003 µM) was 68.3% and the viability, T/C (second compound 0.000949 µM, first compound 0.00949 µM) was 7.36%. The viability, T/C (second compound 0.000949 µM, first compound 0.03 µM) was 4.07%, the viability, T/C (second compound 0.000949 µM, first compound 0.0949 µM) was 2.52% and the viability, T/C (second compound 0.000949 µM, first compound 0.3 µM) was 1.41%. It also gave a viability, T/C (second compound 0.003 µM, first compound 0.000949 µM) of 62.1%, a viability, T/C (second compound 0.003 µM, first compound 0.003 µM) of 52.2% and a viability, T/C (second compound 0.003 µM, first compound 0.00949 µM) of 8.47%. The viability, T/C (second compound 0.003 µM, first compound 0.03 µM) was 3.87%, the viability, T/C (second compound 0.003 µM, first compound 0.0949 µM) was 2.21% and the viability, T/C (second compound 0.003 µM, first compound 0.3 µM) was 1.33%. It also gave a viability, T/C (second compound 0.00949 µM, first compound 0.000949 µM) of 78.3%, a viability, T/C (second compound 0.00949 µM, first compound 0.003 µM) of 49.9% and a viability, T/C (second compound 0.00949 µM, first compound 0.00949 µM) of 7.64%. The viability, T/C (second compound 0.00949 µM, first compound 0.03 µM) was 4.13%, the viability, T/C (second compound 0.00949 µM, first compound 0.0949 µM) was 2.66% and the viability, T/C (second compound 0.00949 µM, first compound 0.3 µM) was 1.35%. The viability, T/C (second compound 0.03 µM, first compound 0.000949 µM) was 78.1%, the viability, T/C (second compound 0.03 µM, first compound 0.003 µM) was 49.9% and the viability, T/C (second compound 0.03 µM, first compound 0.00949 µM) was 7.8%. For the same compound, the viability, T/C (second compound 0.03 µM, first compound 0.03 µM) was 3.09%, the viability, T/C (second compound 0.03 µM, first compound 0.0949 µM) was 2.15% and the viability, T/C (second compound 0.03 µM, first compound 0.3 µM) was 1.08%. The viability, T/C (second compound 0.0949 µM, first compound 0.000949 µM) was 75.5%, the viability, T/C (second compound 0.0949 µM, first compound 0.003 µM) was 47.4% and the viability, T/C (second compound 0.0949 µM, first compound 0.00949 µM) was 6.39%. It also gave a viability, T/C (second compound 0.0949 µM, first compound 0.03 µM) of 4.02%, a viability, T/C (second compound 0.0949 µM, first compound 0.0949 µM) of 2.14% and a viability, T/C (second compound 0.0949 µM, first compound 0.3 µM) of 1.27%. The viability, T/C (second compound 0.3 µM, first compound 0.000949 µM) was 62.8%, the viability, T/C (second compound 0.3 µM, first compound 0.003 µM) was 35.8% and the viability, T/C (second compound 0.3 µM, first compound 0.00949 µM) was 5.11%. The viability, T/C (second compound 0.3 µM, first compound 0.03 µM) was 3.66%, the viability, T/C (second compound 0.3 µM, first compound 0.0949 µM) was 1.47% and the viability, T/C (second compound 0.3 µM, first compound 0.3 µM) was 1.32%.

`CC(C)n1nc(-c2ccc3oc(N)nc3c2)c2c(N)ncnc21` + CCn1c(-c2cccnc2C(C)OC)c2c3cc(ccc31)N1CCOC(CC(NC(=O)C(C(C)C)N(C)C(=O)C3(F)CCN(C(=O)C#CC(C)(C)N(C)C)CC3)C(=O)N3CCCC(N3)C(=O)OCC(C)(C)C2)C1 gave an IC50 (second compound 0.000949 µM) of 9.24 nM, an IC50 (second compound 0.003 µM) of 6.95 nM and an IC50 (second compound 0.00949 µM) of 8.2 nM. For the same compound, the IC50 (second compound 0.03 µM) was 6.3 nM, the IC50 (second compound 0.0949 µM) was 3.56 nM and the IC50 (second compound 0.3 µM) was 1.37 nM. It also gave a viability, T/C (second compound 0.000949 µM, first compound 0.000316 µM) of 81.6%, a viability, T/C (second compound 0.000949 µM, first compound 0.001 µM) of 81.3% and a viability, T/C (second compound 0.000949 µM, first compound 0.00316 µM) of 78.2%. It also gave a viability, T/C (second compound 0.000949 µM, first compound 0.01 µM) of 47.4%, a viability, T/C (second compound 0.000949 µM, first compound 0.0316 µM) of 18.7% and a viability, T/C (second compound 0.000949 µM, first compound 0.1 µM) of 11.9%. It also gave a viability, T/C (second compound 0.003 µM, first compound 0.000316 µM) of 77.6%, a viability, T/C (second compound 0.003 µM, first compound 0.001 µM) of 80.9% and a viability, T/C (second compound 0.003 µM, first compound 0.00316 µM) of 66.2%. It also gave a viability, T/C (second compound 0.003 µM, first compound 0.01 µM) of 41.8%, a viability, T/C (second compound 0.003 µM, first compound 0.0316 µM) of 20.4% and a viability, T/C (second compound 0.003 µM, first compound 0.1 µM) of 11%. It also gave a viability, T/C (second compound 0.00949 µM, first compound 0.000316 µM) of 77.5%, a viability, T/C (second compound 0.00949 µM, first compound 0.001 µM) of 76.9% and a viability, T/C (second compound 0.00949 µM, first compound 0.00316 µM) of 63.4%. It also gave a viability, T/C (second compound 0.00949 µM, first compound 0.01 µM) of 50%, a viability, T/C (second compound 0.00949 µM, first compound 0.0316 µM) of 16.2% and a viability, T/C (second compound 0.00949 µM, first compound 0.1 µM) of 8.87%. The viability, T/C (second compound 0.03 µM, first compound 0.000316 µM) was 69.3%, the viability, T/C (second compound 0.03 µM, first compound 0.001 µM) was 69.6% and the viability, T/C (second compound 0.03 µM, first compound 0.00316 µM) was 59.1%. It also gave a viability, T/C (second compound 0.03 µM, first compound 0.01 µM) of 44%, a viability, T/C (second compound 0.03 µM, first compound 0.0316 µM) of 18.4% and a viability, T/C (second compound 0.03 µM, first compound 0.1 µM) of 7.89%. The viability, T/C (second compound 0.0949 µM, first compound 0.000316 µM) was 68.7%, the viability, T/C (second compound 0.0949 µM, first compound 0.001 µM) was 61.4% and the viability, T/C (second compound 0.0949 µM, first compound 0.00316 µM) was 50%. For the same compound, the viability, T/C (second compound 0.0949 µM, first compound 0.01 µM) was 37.8%, the viability, T/C (second compound 0.0949 µM, first compound 0.0316 µM) was 12.2% and the viability, T/C (second compound 0.0949 µM, first compound 0.1 µM) was 7.05%. For the same compound, the viability, T/C (second compound 0.3 µM, first compound 0.000316 µM) was 65%, the viability, T/C (second compound 0.3 µM, first compound 0.001 µM) was 53.1% and the viability, T/C (second compound 0.3 µM, first compound 0.00316 µM) was 39.8%. The viability, T/C (second compound 0.3 µM, first compound 0.01 µM) was 28.8%, the viability, T/C (second compound 0.3 µM, first compound 0.0316 µM) was 12.6% and the viability, T/C (second compound 0.3 µM, first compound 0.1 µM) was 6.48%.

Reference: PubChem BioAssay AID2060894 (Molecular Pharmacology Branch, DTP, NCI, 2025)
